The structures appear in SMILES notation. pIC50: −log10 of the molar value. Several values for one entry are separate records, joined by “and”; a condition that tells them apart may be missing. Equal values may be shown once. Bounds are passed on as bounds.

This assay has as its target SARS-CoV-2 Main Protease (SARS-CoV-2) (UniProt P0DTD1).
Broadly, the pIC50 is the IC50 on a negative log10 scale, so that one unit is a factor of ten. Higher therefore signals a low IC50. `CCOC(=O)CCNC(=O)C(c1cccnc1)N(C(=O)c1cocn1)c1ccc(C(C)(C)C)cc1` (centres undefined) showed a negative logarithm of the IC50 (pIC50) of 5.55.

As for `Cc1ccncc1NC(=O)Cc1cccc(F)c1`, the pIC50 is 4.01 and 4.02.

Turning to `O=C(Cn1ccc(=O)[nH]c1=O)OCc1ccc(-c2ccccc2)cc1`, the negative logarithm of the IC50 (pIC50) was under 4.00.

`COC(=O)[C@H]1C[C@H](NC(=O)C(c2cccnc2)N(C(=O)c2cocn2)c2ccc(C(C)(C)C)cc2)CN1C(=O)OC(C)(C)C` (stereo in doubt) gave a negative-log IC50 (pIC50) of 6.08.

For `OCCn1c(CSc2nc3ccccc3o2)nc2ccc(Cl)cc21`, the negative logarithm of the IC50 (pIC50) was 6.49.

In the case of `COc1cc(Cl)nc(Nc2cc(Cl)cc(CC(=O)Nc3cncc4ccccc34)c2)n1`, the pIC50 is 6.30.

The molecule `CC(O)Cc1c(C(=O)N(c2ccc(C(C)(C)C)cc2)C(C(=O)NCCc2cccc(F)c2)c2cccnc2)[nH][nH]c1=O` (centres undefined) showed a negative-log IC50 (pIC50) of under 4.00.

In the case of `C=CC(=O)NCC(=O)N(Cc1ccccc1)C[C@H](O)c1cccs1` (stereo in doubt), the pIC50 was under 4.00.

With `O=C(NCc1nnc2c(=O)[nH]ccn12)c1ccnc2ccnn12`, the pIC50 is under 4.00.

`O=C(Cc1cccc(Cl)c1)Nc1cncc2[nH]ccc12` showed a negative logarithm of the IC50 (pIC50) of 5.21.

On to `CN(c1cc(Cl)cc(CC(=O)Nc2cncc3ccccc23)c1)C1CCN(C(=O)OC(C)(C)C)CC1`, for which the negative logarithm of the IC50 (pIC50) is 5.60.

The molecule `Cc1cc(O)ncc1NC(=O)C1CCOc2ccc(Cl)cc21` (centres undefined) had a pIC50 of under 4.00.

In turn, `O=C(NCCc1cccc(F)c1)C(c1cccnc1)N(C(=O)c1cocn1)C1CC2CCCC2C1` (centres undefined) had a pIC50 of under 4.00.

Regarding `O=C(Nc1cncc2cccc(Cl)c12)C12CC(C1)Oc1ccc(Cl)cc12`, the pIC50 is 4.12.

`CC(C)(C)c1ccc(N(C(=O)c2cocn2)C(C(=O)NC2CC(F)(F)C2)c2cccnc2)cc1` (centres undefined) showed a negative-log IC50 (pIC50) of 5.63.

Molecule `O=C(NCCCO)c1ccc(N(C(=O)c2cocn2)C(C(=O)NCCc2cccc(F)c2)c2cccnc2)cc1` (centres undefined) showed a negative logarithm of the IC50 (pIC50) of under 4.00.

`O=C(Cc1cc(Cl)cc(Nc2cc(Br)ccc2F)c1)Nc1cncc2ccccc12` had a negative logarithm of the IC50 (pIC50) of 5.72.

With `O=C(Cc1cc(Cl)cc(NCc2c(Cl)cccc2Cl)c1)Nc1cncc2ccccc12`, the pIC50 is 5.57.

`C=CC(=O)N(c1ccc(C(C)(C)C)cc1)C(C(=O)Nc1ccc2c(c1)OCO2)c1cccnc1` (centres undefined) gave a pIC50 of 4.44.

The molecule `O=C(Cc1cc(Cl)cc(NCc2ccc(Br)cc2F)c1)Nc1cncc2ccccc12` had a pIC50 of 5.46.

Regarding `O=C(Cc1cc(Cl)cc(Nc2cccc(-c3ccccc3)c2)c1)Nc1cncc2ccccc12`, the pIC50 is 5.23.

Regarding `CC(=O)NCCc1c[nH]c2ccc(O)cc12`, the pIC50 is under 4.00.

For the molecule `CC(C)(C)c1ccc(-c2nnc(Sc3cnc([N+](=O)[O-])s3)o2)cc1`, the pIC50 was 5.14 and 5.62.

As to `O=C(Cc1ccncc1Cl)Nc1cncc2ccccc12`, the pIC50 is 4.28.

On to `COc1ccc2c(c1)CN(C(=O)CCl)C(c1ccccc1)C2` (centres undefined), for which the negative logarithm of the IC50 (pIC50) is 5.43.

In turn, `O=C(Nc1cnccc1Cl)c1cc(Cl)ccc1O` had a pIC50 of 4.62.

As for `O=C(Cc1cc(Cl)cc(Nc2ccc(OC(F)F)cc2)c1)Nc1cncc2ccccc12`, the pIC50 was 5.72.

The molecule `O=C(CCl)N1CCC(c2nc(-c3cccnc3)nc3ccccc23)CC1` gave a negative-log IC50 (pIC50) of 4.74.

`c1ccc2oc(C3CCCN(Cc4cnc5cnccn45)C3)nc2c1` (centres undefined): the pIC50 was under 4.00.

With `CNC(=O)CN1C[C@H](C(=O)Nc2cncc3cc(Cl)ccc23)c2cc(Cl)ccc2C1=O` (stereo in doubt), the pIC50 was 6.83.

With `COCCCNC(=O)C(c1cccnc1)N(C(=O)c1cocn1)c1ccc(C(C)(C)C)cc1` (centres undefined), the pIC50 is 5.06.

With `COC(=O)[C@@H]1C[C@H](NC(=O)C(c2cccnc2)N(C(=O)c2cocn2)c2ccc(C(C)(C)C)cc2)CN1C(=O)OC(C)(C)C` (stereo in doubt), the pIC50 was 5.58.

Take `O=C(NCCc1cccc(F)c1)C(c1cccnc1)N(C(=O)c1cocn1)c1ccc(C2(O)COC2)cc1` (centres undefined): the negative-log IC50 (pIC50) is under 4.00.

In the case of `O=C(Cc1cc(Cl)cc(OC2CC(=O)N2)c1)Nc1cc(=O)[nH]c2ccccc12` (centres undefined), the pIC50 was 4.08.

Source of the values: the COVID Moonshot data (paper PMC7615835).
